In US20110319482A1, “NOVEL TREATMENTS” (priority 2008, published 2011):

Experiments:
[1] = clinical trials, oral administration to man: plasma pharmacokinetics; type: in vivo; conditions: human, oral compositions as described in Table 1, administered orally to man
Source text: When taken during a migraine attack TMAX may be more variable and prolonged.

migraine with aura = experiment: single centre, double-blind, randomised, placebo controlled crossover study of prophylaxis of migraine in patients with migraine with aura; type: in vivo; conditions: 31 patients with migraine with aura, 20 or 40 mg po od, 12 week treatment period
Procedure: A single centre, double-blind, randomised, placebo controlled crossover study to evaluate the efficacy and tolerability of tonabersat in the prophylaxis of migraine in patients presenting with migraine with aura was conducted. Twelve week treatment period followed by a 4 week wash-out period before cross-over to 12 weeks treatment with the alternative trial medication. To investigate the efficacy of tonabersat compared to placebo in the reduction of the number of aura attacks and the number of migraine headache days in patients with migraine with aura. Following screening, patients were randomised to active or placebo treatment for 12 weeks. During the first two weeks of the treatment period, patients received treatment with tonabersat 20 mg (one tablet daily) or matching placebo. After two weeks, the dose was increased to tonabersat 40 mg per day (two tablets taken once daily [od]) with a similar increase in the number of placebo tablets taken. Depending on tolerability during the treatment period, the dose may have been reduced to 20 mg per day (or one placebo tablet) for the remainder of the treatment period. On completion of the first treatment period patients received placebo tablets (one tablet daily) for 4 weeks before starting the second treatment period when the alternative trial medication was administered. The design of the second period was the same as the first. […]

- half-life ([1]; read-out: terminal elimination half life): 24 to 40 h
- Tmax ([1]; read-out: time to maximum plasma concentration (TMAX)): 1 to 3 h
Compound: CC(=O)c1ccc2c(c1)[C@H](NC(=O)c1ccc(F)c(Cl)c1)[C@H](O)C(C)(C)O2 [tonabersat, cis-6-acetyl-4-(S)-(3-chloro-4-fluorobenzoylamino)-3,4-dihydro-2,2-dimethyl-2H-1-benzopyran-3-(S)-ol]
- reduction in aura attacks compared to placebo (migraine with aura; p=0.01): 50%
- reduction in migraine headache days compared to placebo (migraine with aura; p=0.08): 37.5%
